Source: BindingDB's records for doi:10.1016/s0960-894x(98)00691-x (Novartis Pharmaceuticals, 1999)

Assay: Inhibition of Cyclin-dependent kinase 1, CDK1-related human bladder carcinoma (T24) cell proliferation

- IC50: 830 nM
SMILES: CCn1cnc2c(Nc3cccc(Cl)c3)nc(N[C@H]3CC[C@@H](O)CC3)nc21 [4-[6-(3-Chloro-phenylamino)-9-ethyl-9H-purin-2-ylamino]-cyclohexanol]
